{
  "source": "patent US12485114B2",
  "about": "“Materials and methods useful to induce cancer cell death via methuosis or autophagy or a combination thereof” (The University of Toledo, priority 2017, dated 2025)",
  "key": {"macropinocytosis": {"system": "macropinocytosis", "test": "Lucifer yellow dye uptake (macropinocytosis)", "assay_type": "cell-based", "details": "10 μM, 6 h treatment", "description": "BAPT-27 induced vacuoles that combine both methuosis and autophagy characteristics. […] The author mechanism involved in this non-conventional cell death mechanism is a special type of […] that has been termed methuosis. The treatment of cells by BAPT-27 caused the displacement of the cytoplasm by vacuoles derived from macropinosomes. At early time points, the vacuoles are small in size. The small vacuoles then increase in number, and then fuse with each other over time forming larger vacuoles that cover the whole cytoplasm. Eventually, this causes a disturbance of the cell membrane and burst of the cells, release of fluids, detachment of cell, and death. […] Accordingly, alteration in both autophagic and methuosis mechanisms are involved in the BAPT-27 cell death process."}, "[1]": {"system": "NSCLC cells resistant to apoptosis", "test": "Activity in apoptosis-resistant NSCLC cells", "assay_type": "cell-based", "description": "(FIG. 46). NSCLC cells resistant to apoptosis are also sensitive to the activities of BAPT-27."}, "TFEB-mTOR pathway": {"system": "TFEB-mTOR pathway", "test": "mTOR, Beclin-1 and LC3B-II autophagy related markers", "assay_type": "cell-based", "description": "Autophagosome and lysosomal homeostasis is governed by transcription factor EB (TFEB)—mTOR signaling pathways (TFEB-mTOR pathway). […] (FIG. 51A & FIG. 51B & FIG. 51C)."}, "FLT3(D835V)": {"target": "T1, FLT3(D835V) (Homo sapiens, UniProt P36888, D835V)", "T1 construct": "purchased DiscoverX (KINOMEscan)", "test": "Kinome screening (DiscoverX) against 468 kinases", "assay_type": "binding", "procedure": "(§1) FIG. 49A: Image showing the effect of Image was generated using TREEspot™ Software Tool and reprinted with permission from KINOMEscan®, a division of DiscoveRx Corporation, @ DISCOVERX CORPORATION 2010. Selectivity Score or S-score is a quantitative measure of compound selectivity. It was calculated by dividing the number of kinases that BAPT-27 bind to by the total number of distinct kinases tested, excluding mutant variants."}, "ABL1 T315I": {"target": "T2, ABL1 T315I (Homo sapiens, UniProt P00519, T315I)", "T2 construct": "purchased DiscoverX (KINOMEscan)", "test": "Kinome screening (DiscoverX) against 468 kinases", "assay_type": "binding", "procedure": "as §1"}, "[2]": {"target": "T3, phosphoinositide 5-kinase (PIKfyve) (Homo sapiens, UniProt Q9Y2I7)", "T3 construct": "purchased DiscoverX (KINOMEscan)", "test": "Kinome screening (DiscoverX) against 468 kinases", "assay_type": "binding", "procedure": "as §1"}, "JNK3": {"target": "T4, JNK3 (Homo sapiens, UniProt P53779)", "T4 construct": "purchased DiscoverX (KINOMEscan)", "test": "Kinome screening (DiscoverX) against 468 kinases", "assay_type": "binding", "procedure": "as §1"}, "JNK2": {"target": "T5, JNK2 (Homo sapiens, UniProt P45984)", "T5 construct": "purchased DiscoverX (KINOMEscan)", "test": "Kinome screening (DiscoverX) against 468 kinases", "assay_type": "binding", "procedure": "as §1"}, "DYRK1A": {"target": "T6, DYRK1A (Homo sapiens, UniProt Q13627)", "T6 construct": "purchased DiscoverX (KINOMEscan)", "test": "Kinome screening (DiscoverX) against 468 kinases", "assay_type": "binding", "procedure": "as §1"}, "FLT3(ITD, D835V)": {"system": "FLT3(ITD, D835V)", "test": "Kinome screening (DiscoverX) against 468 kinases", "assay_type": "binding", "procedure": "as §1"}, "JNK1": {"target": "T7, JNK1 (Homo sapiens, UniProt P45983)", "T7 construct": "purchased DiscoverX (KINOMEscan)", "T7 sequence (P45983 whole entry)": "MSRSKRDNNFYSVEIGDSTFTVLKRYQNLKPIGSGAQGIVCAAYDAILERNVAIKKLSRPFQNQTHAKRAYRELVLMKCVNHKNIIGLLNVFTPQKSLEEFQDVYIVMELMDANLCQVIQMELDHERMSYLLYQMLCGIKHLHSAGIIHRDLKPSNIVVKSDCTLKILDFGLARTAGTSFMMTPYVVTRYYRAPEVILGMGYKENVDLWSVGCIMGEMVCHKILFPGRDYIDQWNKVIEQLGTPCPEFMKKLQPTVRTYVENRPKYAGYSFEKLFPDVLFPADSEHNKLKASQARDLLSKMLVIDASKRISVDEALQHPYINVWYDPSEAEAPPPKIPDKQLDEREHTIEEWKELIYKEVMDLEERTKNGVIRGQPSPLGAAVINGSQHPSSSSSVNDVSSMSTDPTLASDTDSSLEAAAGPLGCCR", "test": "Kinome screening (DiscoverX) against 468 kinases", "assay_type": "binding", "procedure": "as §1"}, "cancer cells": {"system": "cancer cells", "test": "Vacuoles formation and cell death with necroptosis inhibitor necrostatin-1", "assay_type": "cell-based", "details": "necrostatin-1 up to 30 μM", "procedure": "BAPT-27 induces a type of death that is also independent of necrosis or necroptosis. The vacuoles formation and cell death was not inhibited by the addition of necrostatin-1, a necroptosis inhibitor, even at high concentrations (up to 30 μM).\nBAPT-27 induces a type of death that is independent of necrosis or necroptosis. The vacuoles formation and cell death was not inhibited by the addition of necrostatin-1, a necroptosis inhibitor, even at high concentrations (up to 30 μM). (FIG. 44)."}, "[3]": {"system": "HT29 colon cancer cell line", "test": "Morphological assessment of vacuolization", "assay_type": "cell-based", "description": "(§2) The methuophagy inducing activities of BAPT-27 were also prominent in different colon cancer cell lines with different genetic profiles. […] (FIG. 42). However, the vacuoles formation was not prominent in normal epithelial colon cells (CRL-1459). (FIG. 42)."}, "HCT-116 (colon cancer)": {"system": "HCT-116 (colon cancer)", "test": "Morphological assessment of vacuolization", "assay_type": "cell-based", "description": "as §2"}, "[4]": {"system": "HCT15 colon cancer cell line", "test": "Morphological assessment of vacuolization", "assay_type": "cell-based", "description": "as §2"}, "[5]": {"system": "HCT116, HCT116 Bax −/−, HCT116 Bak −/−, HCT116 Bax/Bak−/−", "test": "Death in apoptosis resistant colon cancer cell lines", "assay_type": "cell-based", "details": "cell lines missing pro-apoptotic genes Bax and Bak", "description": "The cells became sensitive to the cytotoxicity of mitoxantrone when combined with BAPT-27. Further, BAPT-27 induced death in apoptosis resistant cell lines including colon cancer cell lines that are missing important pro-apoptotic genes Bax and Bak using well established models (HCT116, HCT116 Bax −/−, HCT116 Bak −/−, HCT116 Bax/Bak−/−). Accordingly, BAPT-27 represents a family of compounds that induce cell death in sensitive and resistant cancers, as well as those cancers that are refractory to death by conventional apoptosis inducing anticancer agents."}, "C57BL/6 mice": {"system": "C57BL/6 mice", "test": "Safety studies in C57BL/6 mice", "assay_type": "in vivo", "procedure": "FIG. 53A: C57BL/6J mice (8-10 weeks old) were treated intraperitoneally with indicated concentration of BAPT-27 or vehicle (saline) for 14 days. At the end of 14 days, blood was collected in heparin-coated tubes for blood chemistry analysis using abaxis veterinary chemistry analyzer (VETSCAN vs2).\nFIG. 53B: Representative immunohistochemical slides are shown for kidney, liver, heart and brain for C57BL/6mice treated intraperitoneally with vehicle (saline) or BAPT-27 at 86.6 mg/kg. The whole tissue section and 10× magnification slides are shown."}, "[6]": {"system": "normal epithelial colon cells (CRL-1459)", "test": "Morphological assessment of vacuolization in normal cells", "assay_type": "cell-based", "details": "CRL-1459 normal cells", "description": "as §2"}, "zebrafish": {"system": "zebrafish", "test": "Safety in zebrafish", "assay_type": "in vivo", "details": "100 μM", "procedure": "The safety of BAPT-27 was studied in zebrafish. BAPT-27 is safe in zebrafish even at a very high concentration of 100 μM. The fish were healthy with no changes in their morphology, swim positions, or their cardiac parameters. (FIG. 52)."}, "[7]": {"system": "colon, pancreatic, ovarian, lung, and prostate cancer cell lines", "test": "Vacuole accumulation in cancer cell lines", "assay_type": "cell-based", "description": "The vacuoles are originated from macropinocytosomes as confirmed by extracellular fluid phase tracers. Vacuolization has been described previously as methuosis. However, the vacuoles induced here combine the characteristics of methuosis, autophagy, enhanced lysosomal activity, and other distinct characteristics."}, "β-tubulin": {"system": "β-tubulin", "test": "β-tubulin expression and microtubules dynamics", "assay_type": "cell-based", "set-up": "β-tubulin expression levels: dose or concentration left out as unconfirmed"}},
  "data": [
    {"smiles": "Sc1nnc(-c2ccncc2)n1/N=C/c1c[nH]c2ccccc12", "note": "[BAPT-27, 4-(((1H-Indol-3-Yl)Methylene)Amino)-5-(Pyridin-4-Yl)-4H-1,2,4-Triazole-3-Thiol]", "values": [
      {"measurement": "Lucifer yellow dye in formed vacuoles", "setting": "macropinocytosis", "value": "Extensive accumulation"},
      {"measurement": "sensitivity to the activities of BAPT-27", "setting": "[1]", "value": "sensitive"},
      {"measurement": "Beclin-1 level", "setting": "TFEB-mTOR pathway", "value": "increased"},
      {"measurement": "LC3B-II level", "setting": "TFEB-mTOR pathway", "value": "increased"},
      {"measurement": "mTOR level", "setting": "TFEB-mTOR pathway", "value": "significantly downregulated"},
      {"measurement": "inhibitory potency", "setting": "FLT3(D835V)", "value": "shows inhibitory potency"},
      {"measurement": "inhibitory potency", "setting": "ABL1 T315I", "value": "shows inhibitory potency"},
      {"measurement": "inhibitory potency", "setting": "[2]", "value": "shows inhibitory potency"},
      {"measurement": "inhibitory potency", "setting": "JNK3", "value": "shows inhibitory potency"},
      {"measurement": "inhibitory potency", "setting": "JNK2", "value": "shows inhibitory potency"},
      {"measurement": "inhibitory potency", "setting": "DYRK1A", "value": "shows inhibitory potency"},
      {"measurement": "inhibitory potency", "setting": "FLT3(ITD, D835V)", "value": "shows inhibitory potency"},
      {"measurement": "inhibitory potency", "setting": "JNK1", "value": "shows inhibitory potency"},
      {"measurement": "inhibition of vacuoles formation and cell death by necrostatin-1", "setting": "cancer cells", "value": "not inhibited"},
      {"measurement": "vacuolization", "setting": "[3]", "value": "extensive vacuoles formation"},
      {"measurement": "vacuolization", "setting": "HCT-116 (colon cancer)", "value": "extensive vacuoles formation"},
      {"measurement": "vacuolization", "setting": "[4]", "value": "extensive vacuoles formation"},
      {"measurement": "cell death in apoptosis resistant cell lines", "setting": "[5]", "value": "induced death"},
      {"measurement": "safety in mice", "setting": "C57BL/6 mice; 86.6 mg/kg given intraperitoneally", "value": "safe"},
      {"measurement": "behavioral or phenotypic toxicity", "setting": "C57BL/6 mice; up to 14 days", "value": "no behavioral or phenotypic toxicity"},
      {"measurement": "vacuoles formation", "setting": "[6]", "value": "not prominent"},
      {"measurement": "changes in morphology, swim positions, or cardiac parameters", "setting": "zebrafish", "value": "no changes"},
      {"measurement": "safety in zebrafish", "setting": "zebrafish", "value": "safe"},
      {"measurement": "accumulation of fluid filled-cytoplasmic vacuoles", "setting": "[7]", "value": "induces the rapid accumulation of extensive fluid filled-cytoplasmic vacuoles"},
      {"measurement": "β-tubulin expression levels", "setting": "β-tubulin", "value": "no significant change"},
      {"measurement": "microtubules dynamics", "setting": "β-tubulin; 24 h", "value": "significant disturbance"}
    ]}
  ]
}
